Activity calls are given as the source filed them. The rule behind the calls is not given here.
Assays:
[1] = test system: HGC-27; assay: Induction of apoptosis in human HGC-27 cells assessed as late apoptotic cells at 0.5 uM incubated for 48 hrs by annexin V-FITC and PI staining based flow cytometry analysis (reference value: 5.02%); format: functional
[2] = test system: AGS; assay: Induction of apoptosis in human AGS cells assessed as necrotic cells at 0.5 uM incubated for 48 hrs by annexin V-FITC and PI staining based flow cytometry analysis (reference value: 0.44%); format: functional
[3] = test system: HGC-27; assay: Downregulation of SRSF1 protein level in human HGC-27 cells at 0.5 to 2 uM by Western blotting analysis; format: functional, cell-based; settings: dose 0.5-2 µM
[4] = test system: HGC-27; assay: Induction of autophagy in human HGC-27 cells assessed as increase in green fluorescent number co-treated with chloroquine at 2 uM incubated for 48 hrs by DAPI staining based immunofluorescence analysis; format: functional, cell-based
[5] = test system: HGC-27; assay: Induction of apoptosis in human HGC-27 cells assessed as early apoptotic cells at 2 uM incubated for 48 hrs by annexin V-FITC and PI staining based flow cytometry analysis (reference value: 3.13%); format: functional
[6] = test system: HGC-27; assay: Induction of autophagy in human HGC-27 cells assessed as decrease in P62 protein level in tumor tissue at 25 to 100 mg/kg, ip administered daily; format: functional, organism-based; settings: dose 25-100 mg/kg
[7] = test system: AGS; assay: Induction of apoptosis in human AGS cells assessed as increase in cleaved caspase-3 expression at 0.5 to 2 uM incubated overnight by Western blotting analysis; format: functional, cell-based; settings: dose 0.5-2 µM
[8] = test system: AGS; assay: Induction of autophagy in human AGS cells assessed as upregulation of Beclin1 protein level at 0.5 to 2 uM incubated for 48 hrs by Western blotting analysis; format: functional, cell-based; settings: dose 0.5-2 µM
[9] = test system: HGC-27; assay: Antitumor activity against human HGC-27 cells xenografted in male BALB/c nude mouse assessed as tumor growth inhibition at 100 mg/kg, ip administered every day for 15 days relative to control; format: functional; settings: HGC-27, 360 h, time 15 day, read-out: TGI
[10] = test system: HGC-27; assay: Induction of apoptosis in human HGC-27 cells assessed as late apoptotic cells at 1 uM incubated for 48 hrs by annexin V-FITC and PI staining based flow cytometry analysis (reference value: 5.02%); format: functional
[11] = test system: HGC-27; assay: Induction of apoptosis in human HGC-27 cells assessed as necrotic cells at 2 uM incubated for 48 hrs by annexin V-FITC and PI staining based flow cytometry analysis (reference value: 0.062%); format: functional
[12] = test system: AGS; assay: Induction of autophagy in human AGS cells assessed as upregulation of ATG5 protein level at 0.5 to 2 uM incubated for 48 hrs by Western blotting analysis; format: functional, cell-based; settings: dose 0.5-2 µM
[13] = test system: AGS; assay: Induction of apoptosis in human AGS cells assessed as viable cells at 0.5 uM incubated for 48 hrs by annexin V-FITC and PI staining based flow cytometry analysis (reference value: 92.0%); format: functional; settings: read-out: Activity
[14] = test system: HCT-116; assay: Antiproliferative activity against human HCT-116 cells assessed as inhibition of cell proliferation incubated for 72 hrs by MTT assay; format: functional, cell-based; settings: HCT-116, 72 h
[15] = test system: HGC-27; assay: Antitumor activity against human HGC-27 cells xenografted in male BALB/c nude mouse assessed as tumor growth inhibition at 25 mg/kg, ip administered every day for 15 days relative to control; format: functional; settings: HGC-27, 360 h, time 15 day, read-out: TGI
[16] = test system: HGC-27; assay: Induction of apoptosis in human HGC-27 cells assessed as necrotic cells at 0.5 uM incubated for 48 hrs by annexin V-FITC and PI staining based flow cytometry analysis (reference value: 0.062%); format: functional
[17] = test system: MCF7; assay: Antiproliferative activity against human MCF7 cells assessed as inhibition of cell proliferation incubated for 72 hrs by MTT assay; format: functional, cell-based; settings: MCF7, 72 h
[18] = test system: HGC-27; assay: Induction of autophagy in human HGC-27 cells assessed as upregulation of LC3 II protein level at 0.5 to 2 uM incubated for 48 hrs by Western blotting analysis; format: functional, cell-based; settings: dose 0.5-2 µM
[19] = test system: AGS; assay: Downregulation of Bcl-xl expression in human AGS cells at 0.5 to 2 uM incubated overnight by Western blotting analysis; format: functional, cell-based; settings: dose 0.5-2 µM
[20] = test system: AGS; assay: Induction of autophagy in human AGS cells assessed as upregulation of LC3 II protein level at 0.5 to 2 uM incubated for 48 hrs by Western blotting analysis; format: functional, cell-based; settings: dose 0.5-2 µM
[21] = test system: HGC-27; assay: Induction of autophagy in human HGC-27 cells assessed as downregulation of P62 protein level at 0.5 to 2 uM incubated for 48 hrs by Western blotting analysis; format: functional, cell-based; settings: dose 0.5-2 µM
[22] = test system: HGC-27; assay: Antiproliferative activity against human HGC-27 cells assessed as inhibition of cell proliferation incubated for 72 hrs by MTT assay; format: functional, cell-based; settings: HGC-27, 72 h
[23] = Acute toxicity in male ICR mouse assessed as abnormal hepatocyte morphology at 1 g/Kg, ip measured after 7 days by H and E staining based light microscopic analysis; format: organism-based; settings: in vivo, 1000 mg/kg, 168 h, time 7 day
[24] = test system: SGC-7901; assay: Antiproliferative activity against human SGC-7901 cells assessed as inhibition of cell proliferation incubated for 72 hrs by MTT assay; format: functional, cell-based; settings: SGC-7901, 72 h
[25] = test system: AGS; assay: Induction of apoptosis in human AGS cells assessed as viable cells at 1 uM incubated for 48 hrs by annexin V-FITC and PI staining based flow cytometry analysis (reference value: 92.0%); format: functional; settings: read-out: Activity
[26] = test system: AGS; assay: Induction of apoptosis in human AGS cells assessed as early apoptotic cells at 2 uM incubated for 48 hrs by annexin V-FITC and PI staining based flow cytometry analysis (reference value: 4.44%); format: functional
[27] = test system: HGC-27; assay: Induction of apoptosis in human HGC-27 cells assessed as early apoptotic cells at 1 uM incubated for 48 hrs by annexin V-FITC and PI staining based flow cytometry analysis (reference value: 3.13%); format: functional
[28] = test system: AGS; assay: Induction of cell cycle arrest in human AGS cells assessed as increase in P21 expression at 0.5 to 2 uM by Western blotting analysis; format: functional, cell-based; settings: dose 0.5-2 µM
[29] = test system: HGC-27; assay: Upregulation of MAP1LC3B2 mRNA expression in human HGC-27 cells at 2 uM incubated for 24 hrs; format: functional, cell-based
[30] = test system: AGS; assay: Induction of autophagy in human AGS cells assessed as upregulation of LC3 I protein level at 0.5 to 2 uM incubated for 48 hrs by Western blotting analysis; format: functional, cell-based; settings: dose 0.5-2 µM
[31] = test system: AGS; assay: Induction of apoptosis in human AGS cells assessed as viable cells at 2 uM incubated for 48 hrs by annexin V-FITC and PI staining based flow cytometry analysis (reference value: 92.0%); format: functional; settings: read-out: Activity
[32] = test system: HGC-27; assay: Induction of autophagy in human HGC-27 cells assessed as upregulation of Beclin1 protein level at 0.5 to 2 uM incubated for 48 hrs by Western blotting analysis; format: functional, cell-based; settings: dose 0.5-2 µM
[33] = test system: HGC-27; assay: Induction of apoptosis in human HGC-27 cells assessed as viable cells at 1 uM incubated for 48 hrs by annexin V-FITC and PI staining based flow cytometry analysis (reference value: 91.8%); format: functional; settings: read-out: Activity
[34] = test system: BGC-823; assay: Antiproliferative activity against human BGC-823 cells assessed as inhibition of cell proliferation incubated for 72 hrs by MTT assay; format: functional, cell-based; settings: BGC-823, 72 h
[35] = test system: HGC-27; assay: Induction of autophagy in human HGC-27 cells assessed as increase in LC3 II/LC3 I ratio in tumor tissue at 25 to 100 mg/kg, ip administered daily; format: functional, organism-based; settings: dose 25-100 mg/kg

CC(C)[C@]12O[C@H]1[C@@H]1O[C@]13[C@]1(O[C@H]1C[C@H]1C4=C(CC[C@@]13C)C(=S)OC4)[C@@H]2O
Activity [1]: 10.5%
Activity [2]: 0.55%
Activity [3]: Active
Activity [4]: Active
Activity [5]: 28.1%
Activity [6]: Active
Activity [7]: Active
Activity [8]: Active
inhibition in vivo at 100 mg/kg [9]: 82.7%
Activity [10]: 9.29%
Activity [11]: 0.16%
Activity [12]: Active
viability at 0.5 µM [13]: 82.3%
IC50 [14]: 400 nM
inhibition in vivo at 25 mg/kg [15]: 63.7%
Activity [16]: 0.13%
IC50 [17]: 760 nM
Activity [18]: Active
Activity [19]: Active
Activity [20]: Active
Activity [21]: Active
IC50 [22]: 330 nM
Activity [23]: Non-toxic
IC50 [24]: 1800 nM
viability at 1 µM [25]: 65.1%
Activity [26]: 31.6%
Activity [27]: 6.12%
Activity [28]: Active
Activity [29]: Active
Activity [30]: Active
viability at 2 µM [31]: 35.9%
Activity [32]: Active
viability at 1 µM [33]: 84.5%
IC50 [34]: 1330 nM
Activity [35]: Active
